Measurements from patent US6664231B1, “Anti-fungal peptides” (priority 1993, dated 2003).
Read-outs that look alike come from different tables or passages of the source. Square brackets hold non-standard residues; d marks the D form. Ends that are not written are not given here. Peptide text beside a SMILES is read from it. pGlu = O=C1CC[C@@H](C(=O)O)N1; Dab = NCC[C@H](N)C(=O)O

Assays:
[1] = tested on: C. albicans (CA-1, Strain SLU-1); test: Radial diffusion assay; assay type: cell-based, Candida albicans; conditions: pmoles of peptide added to well to achieve a 30 mm^2 zone, PROBIT analysis, crude or purified (P′) peptide
How it was run: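 Yeast at 1×10^6 CFU/mL in agarose underlayer (3% Sabouraud, 10 mM sodium phosphate pH 7.4); 2-fold peptide dilutions in D-PBS from ~1 mg/mL loaded into wells, 3 h at 37° C, then nutrient overlayer overnight. Value: pmol/well giving 30 mm^2 net clear zone, by PROBIT regression.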

[2] = Serum stability, anti-fungal activity after serum incubation by radial diffusion bioassay; assay type: in vitro ADME, rat or human serum; conditions: Activity in Serum t ½ (hr.)
Protocol: For these serum stability experiments, peptides were prepared by solid phase peptide sythesis and purified to 94% or greater purity as described in Example 1. Blood was collected from metaphane anesthesized rats by aortic bleed into Vacutainer™ tubes and allowed to clot at room temperature for approximately 30 minutes, then centrifuged at 3000 rpm (about 1000×g) for 10 minutes at room temperature and the serum aspirated. In addition, frozen human serum (North American Biologics, Inc., Miami, Fla., cat. no. 2140, lot no. 94115) was thawed at room temperature and filtered through a 0.45 μm membrane before use.
A 1 mg/mL solution of an exemplary XMP peptide to be tested was added to an equal volume of either rat or human serum described above and maintained at 37° C. At 0, 1, 2, and 4 hours, 100 μL were removed and processed by solid phase extraction for HPLC analysis as follows. Serum samples were prepared for HPLC using C-18 Sep-Pak cartridges (1 mL cartridge with 100 mg of sorbent, Waters Corp., Milford, Mass.). One hundred μL of serum sample were added to an equal volume of 1% TFA and mixed for 30 seconds on a Vortex mixer. The sample was then applied to a C-18 Sep-Pak cartridge that had been conditioned by washing with 1 mL of methanol followed by 1 mL Milli-Q water. Weakly reed components were eluted by washing with 1 mL of 0. 1% TFA. The bound peptide was eluted with two volumes of 250 μL 80% acetonitrile/0.065% TFA.
The peptides identified and purified after serum incubation as described above were subjected to N-terminal peptide sequencing performed on an Applied Biosystems Model 477A/120A sequencer and to electrospray ionization mass spectrometry (ESI/MS) performed using a VG Biotech Bio-Q Mass Spectrometer. In addition, the peptides identified and purified after serum incubation as described above were also tested for their anti-fungal activity in a radial diffusion bioassay with Candida albicans SLU-1 strain as described in Example 2.

[3] = tested on: mouse RAW 264.7 cells
Protocol: (§1) An in vitro LPS neutralization screening assay for evaluation of Domain III derived peptides was developed (as described in co-owned and co-pending U.S. patent application Ser. No. 08/306,473) which provides both a measure of efficacy of each peptide (EC50) and of the toxicity/growth inhibition of each peptide (IC50).
(§2) The cells were counted and their concentration adjusted to 2×10^5 cells/mL and 100 μL aliquots were added to each well of a 96-well microtitre plate. […] This incubation was performed in the absence or presence of peptides in varying concentrations between 25 ng/mL and 50 μg/mL. […] Cell proliferation was quantitatively measured by the addition of 1 μCi/well [^3H]-thymidine 5 hours after the time of initiation of the assay. After the 15-hour incubation, labeled cells were harvested onto glass fiber filters with a cell harvester (Inotech Biosystems, INB-384, Sample Processing and Filter Counting System, Lansing, Mich.).

[4] = tested on: mouse RAW 264.7 cells incubated with E. coli O113 LPS; conditions: RAW 264.7 cells with E. coli O113 LPS; concentration reversing LPS growth inhibition by 50%
Protocol: as §1, §2

[5] = RAW 264.7 cell growth inhibited by 50%

| Compound | IC50 (toxicity/growth inhibition of peptide) [3, 5] | In Vitro LPS Neutralization EC50 [4] | further results |
| --- | --- | --- | --- |
| H-KKLQLLLKK-NH2 [XMP.381] |  |  | C. albicans pmol/30 mm^2 zone [1]: 391 pmol/30 mm^2 zone; half-life at 0.5 mg/mL [2]: 0.8 h |
| CC[C@H](C)[C@H](NC(=O)[C@H](CC(C)C)NC(=O)[C@H](Cc1c[nH]c2ccccc12)NC(=O)[C@@H](N)CCCCN)C(=O)N[C@@H](CCN)C(=O)N[C@@H](CC(C)C)C(=O)N[C@@H](Cc1ccccc1)C(=O)N[C@@H](Cc1c[nH]cn1)C(=O)N[C@@H](CCCCN)C(=O)N[C@@H](CCCCN)C(N)=O [XMP.371] (H-KWLI[Dab]LFHKK-NH2) |  |  | C. albicans pmol/30 mm^2 zone [1]: 843 pmol/30 mm^2 zone; C. albicans pmol/30 mm^2 zone ([1]; listed as XMP.371P′): 523 pmol/30 mm^2 zone; half-life at 0.5 mg/mL [2]: 0.9 h |
| H-KKKWLIQLKK-NH2 [XMP.348] |  |  | C. albicans pmol/30 mm^2 zone [1]: 284 pmol/30 mm^2 zone; half-life at 0.5 mg/mL [2]: 5.5 h |
| H-KKKWAIQLKK-NH2 [XMP.377] |  |  | C. albicans pmol/30 mm^2 zone [1]: 146 pmol/30 mm^2 zone; half-life at 0.5 mg/mL [2]: 1.8 h |
| H-KKWLIQLFHKP-NH2 [XMP.358] |  |  | C. albicans pmol/30 mm^2 zone [1]: 550 pmol/30 mm^2 zone; half-life at 0.5 mg/mL [2]: 1.6 h |
| CC[C@@H](C)[C@@H](NC(=O)[C@@H](CCC(N)=O)NC(=O)[C@@H](CC(C)C)NC(=O)[C@@H](CCCCN)NC(=O)[C@H](N)CCCCN)C(=O)N[C@H](C)C(=O)N[C@H](Cc1c[nH]c2ccccc12)C(=O)N[C@H](CCCCN)C(=O)N[C@H](CCCCN)C(N)=O [XMP.376P] (H-[dK][dK][dL][dQ][dI][dA][dW][dK][dK]-NH2) | NA (NA for IC50 means no evidence of decreased RAW cell growth at up to 50 μg/ml) | >50 µg/mL |  |
| CC[C@H](C)[C@H](NC(=O)[C@H](CC(C)C)NC(=O)[C@H](Cc1c[nH]c2ccccc12)NC(=O)[C@H](CCCCN)NC(=O)[C@@H]1CCCN1)C(=O)N[C@@H](CCC(N)=O)C(=O)N[C@@H](CC(C)C)C(=O)N[C@@H](CCCCN)C(=O)N[C@@H](CCCCN)C(N)=O [XMP.335P] | NA (NA for IC50 means no evidence of decreased RAW cell growth at up to 50 μg/ml) | NA (NA for EC50 means no evidence neutralization of LPS at up to 50 μg/ml) |  |
| XMP.341P ([pGlu][pGlu]WLIQL[pGlu][pGlu]; not fully specified) | NA/NA (NA for IC50 means no evidence of decreased RAW cell growth at up to 50 μg/ml) | >50 µg⁻¹ mL⁻¹ |  |
| CC[C@H](C)[C@H](NC(=O)[C@H](CC(C)C)NC(=O)[C@@H](Cc1c[nH]c2ccccc12)NC(=O)[C@H](N)CCCCN)C(=O)N[C@@H](CCC(N)=O)C(=O)N[C@@H](CC(C)C)C(=O)N[C@@H](Cc1ccccc1)C(=O)N[C@@H](Cc1c[nH]cn1)C(=O)N[C@H](CCCCN)C(=O)N[C@H](CCCCN)C(N)=O [XMP.363P] | NA (NA for IC50 means no evidence of decreased RAW cell growth at up to 50 μg/ml) | >50 µg/mL |  |
| H-HHWLIQLHH-NH2 [XMP 337P] | NA (NA for IC50 means no evidence of decreased RAW cell growth at up to 50 μg/ml) | >50 µg/mL |  |
| H-PWLIQLFHKK-NH2 [XMP.355P] | NA (NA for IC50 means no evidence of decreased RAW cell growth at up to 50 μg/ml) | 1.08 ± 0.05 µg/mL |  |
| KKPWAIQLKK-NH2 (C-terminus assumed) [XMP.379P] | NA (NA for IC50 means no evidence of decreased RAW cell growth at up to 50 μg/ml) | NA (NA for EC50 means no evidence neutralization of LPS at up to 50 μg/ml) |  |
| H-KKWLIQAKK-NH2 [XMP.345P] | NA (NA for IC50 means no evidence of decreased RAW cell growth at up to 50 μg/ml) | >50 µg/mL |  |
| H-KVPWLIQLFHKK-NH2 [XMP.392P] | NA (NA for IC50 means no evidence of decreased RAW cell growth at up to 50 μg/ml) | 24.03 ± 2.67 µg/mL |  |
| Ac-PWLIQLFHKK-NH2 [XMP.356P] |  | 2.72 ± 0.02 µg/mL | IC50 (toxicity/growth inhibition of peptide) [3]: >25 µg/mL |
| PWAIQLFHKK-NH2 (C-terminus assumed) [XMP.387P] | NA (NA for IC50 means no evidence of decreased RAW cell growth at up to 50 μg/ml) | 15.53 ± 2.18 µg/mL |  |
| CC[C@H](C)[C@H](NC(=O)[C@H](CC(C)C)NC(=O)[C@H](Cc1c[nH]c2ccccc12)NC(=O)[C@H](N)CS)C(=O)N[C@@H](CCC(N)=O)C(=O)N[C@@H](CC(C)C)C(=O)N[C@@H](Cc1ccccc1)C(=O)N[C@@H](Cc1c[nH]cn1)C(=O)N[C@@H](CCCCN)C(=O)N[C@@H](CCCCN)C(N)=O [XMP.359P] (H-[dC]WLIQLFHKK-NH2; N-terminus assumed) |  | 7.31 ± 1.26 µg/mL | IC50 (toxicity/growth inhibition of peptide) [3]: >25 µg/mL |
| CC[C@H](C)[C@H](NC(=O)[C@H](CC(C)C)NC(=O)[C@H](Cc1c[nH]c2ccccc12)NC(=O)[C@@H](N)CCCCN)C(=O)N[C@@H](CCN)C(=O)N[C@@H](CC(C)C)C(=O)N[C@@H](Cc1ccccc1)C(=O)N[C@@H](Cc1c[nH]cn1)C(=O)N[C@@H](CCCCN)C(=O)N[C@@H](CCCCN)C(N)=O [XMP.371P] (H-KWLI[Dab]LFHKK-NH2) |  | NA (NA for EC50 means no evidence neutralization of LPS at up to 50 μg/ml) | IC50 (toxicity/growth inhibition of peptide) [3]: >25 µg/mL |
| H-KVKWLIQLFHK-NH2 [XMP.288P] |  | 0.87 ± 0.06 µg/mL | IC50 (toxicity/growth inhibition of peptide) [3]: >25 µg/mL |
| KKLLLLQKK-NH2 [XMP.384P] | NA (NA for IC50 means no evidence of decreased RAW cell growth at up to 50 μg/ml) | NA (NA for EC50 means no evidence neutralization of LPS at up to 50 μg/ml) |  |
| H-KSKVPWLIQLFHKK-NH2 [XMP.393P] | NA (NA for IC50 means no evidence of decreased RAW cell growth at up to 50 μg/ml) | >25 µg/mL |  |
| CC[C@H](C)[C@H](NC(=O)[C@H](CC(C)C)NC(=O)[C@H](Cc1c[nH]c2ccccc12)NC(=O)[C@H](CCCCN)NC(=O)[C@H]1CCCN1)C(=O)N[C@@H](CCC(N)=O)C(=O)N[C@@H](CC(C)C)C(=O)N[C@@H](CCCCN)C(=O)N[C@@H](CCCCN)C(N)=O [XMP.334P] | NA (NA for IC50 means no evidence of decreased RAW cell growth at up to 50 μg/ml) | NA (NA for EC50 means no evidence neutralization of LPS at up to 50 μg/ml) |  |
| CC[C@H](C)[C@H](NC(=O)[C@H](CC(C)C)NC(=O)[C@H](Cc1c[nH]c2ccccc12)NC(=O)[C@H](CCCN)NC(=O)[C@@H](N)CCCN)C(=O)N[C@@H](CCC(N)=O)C(=O)N[C@@H](CC(C)C)C(=O)N[C@@H](CCCN)C(=O)N[C@@H](CCCN)C(N)=O [XMP 338] | NA (NA for IC50 means no evidence of decreased RAW cell growth at up to 50 μg/ml) | >25 µg/mL |  |
| H-KKLLLQLKK-NH2 [XMP.383P] | NA (NA for IC50 means no evidence of decreased RAW cell growth at up to 50 μg/ml) | NA (NA for EC50 means no evidence neutralization of LPS at up to 50 μg/ml) |  |
| KKKWAIQLKK-NH2 [XMP.377P] | NA (NA for IC50 means no evidence of decreased RAW cell growth at up to 50 μg/ml) | NA (NA for EC50 means no evidence neutralization of LPS at up to 50 μg/ml) |  |
